Assay results reported in patent US9422240B2, “Partially saturated nitrogen-containing heterocyclic compound” (TAISHO PHARMACEUTICAL CO., LTD, priority 2012, dated 2016).
Where a name gives a salt, the structure may show the parent alone.

How the values were obtained:
human PHD2 [1] = biological target: T1, human PHD2 (Homo sapiens (Human), UniProt Q9GZT9); test: Test 1: human PHD2 inhibitory activity, [14C]-2-oxoglutarate to [14C]-succinic acid radiometric assay with HIF-1α peptide; format: biochemical; details: read-out: Percent inhibition (% at 1 μM)
T1 sequence (Q9GZT9 whole entry): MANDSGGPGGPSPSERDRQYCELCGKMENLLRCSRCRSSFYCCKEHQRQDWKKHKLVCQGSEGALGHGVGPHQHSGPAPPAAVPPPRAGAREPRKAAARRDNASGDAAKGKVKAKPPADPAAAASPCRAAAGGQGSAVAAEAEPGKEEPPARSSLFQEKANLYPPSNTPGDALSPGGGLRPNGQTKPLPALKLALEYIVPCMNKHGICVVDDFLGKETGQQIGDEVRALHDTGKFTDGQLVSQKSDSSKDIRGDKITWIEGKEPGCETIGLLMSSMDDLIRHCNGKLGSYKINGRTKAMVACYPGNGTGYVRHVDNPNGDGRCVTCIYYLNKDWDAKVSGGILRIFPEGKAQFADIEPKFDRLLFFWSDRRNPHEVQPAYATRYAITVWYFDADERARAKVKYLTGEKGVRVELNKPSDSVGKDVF
In short: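 Activity was measured by radiometric counting of [14C]-succinic acid formed during prolyl hydroxylation of a 19-mer HIF-1α peptide, after DNPH removal of residual [14C]-2-oxoglutarate. Baculovirus-expressed human PHD2 lysate (4 μg/well) reacted for 15 min at 37° C. Substrate-free and compound-free wells served as reference points for inhibition.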

human PHD2 [2] = biological target: T1, human PHD2; test: Test 2: human PHD2 inhibitory activity, fluorescence polarization assay of HIF-1α peptide proline hydroxylation; format: biochemical; details: for inhibition at 1 µM: read-out: Percent inhibition (% at 1 μM); for IC50: human PHD2, fluorescence polarization assay, 20-min incubation at 30° C.
In short: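 A 19-mer HIF-1α peptide served as substrate, with the reaction started by 40 ng/well human PHD2 (cell lysate of NM_022051-transfected cells) and run 20 min at 30° C. before EDTA stop. Hydroxylated product bound anti-HIF-OH antibody, read by fluorescence polarization versus no-compound control.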

[3] = test compound's concentration 1 μM, Test 1, [14C]-2-oxoglutarate radiometric assay
[4] = test compound's concentration 1 μM, Test 2, fluorescence polarization assay

| SMILES | inhibition at 1 µM (human PHD2 [1]; [3]) | inhibition at 1 µM (human PHD2 [2]; [4]) | IC50 (human PHD2 [2]) | inhibition at 1 µM (human PHD2 [1]) | inhibition at 1 µM (human PHD2 [2]) |
| --- | --- | --- | --- | --- | --- |
| CC1CN(Cc2ccc(Br)cc2)C(=O)C(C(=O)NCC(=O)O)=C1O (stereo not drawn) [Ex. 1-144] | 76% | 85% |  |  |  |
| Cc1cc(CN2C(=O)C(C(=O)NCC(=O)O)=C(O)CC2(C)C)ccc1Cl [Ex. 1-180] | 54% | 65% |  |  |  |
| O=C(O)CNC(=O)C1=C(O)CCN(Cc2cc(C(F)(F)F)cc(C(F)(F)F)c2)C1=O [Ex. 1-59] | 41% | 54% |  |  |  |
| CC1CN(CC2CCC(c3ccccc3)CC2)C(=O)C(C(=O)NCC(=O)O)=C1O (stereo not drawn) [Ex. 1-107] | 67% | 90% |  |  |  |
| O=C(O)CNC(=O)C1=C(O)CC2(CCC2)N(Cc2ccc(C(F)(F)F)cc2)C1=O [Ex. 1-122] | 65% | 76% |  |  |  |
| O=C(O)CNC(=O)C1=C(O)CC2(CCC2)N(Cc2cnc(-c3ccccc3)s2)C1=O [Ex. 1-131] | 93% | 96% |  |  |  |
| O=C(O)CNC(=O)C1=C(O)CCN(Cc2ccc(C3CCCCC3)cc2)C1=O [Ex. 1-37] | 87% | 89% |  |  |  |
| N#Cc1ccc(-c2ccc(CN3CCC(O)=C(C(=O)NCC(=O)O)C3=O)cc2)cc1 [Ex. 2-14] | 98% | 93% |  |  |  |
| COc1ccc(CN2CCC(O)=C(C(=O)NCC(=O)O)C2=O)cc1 [Ex. 1-48] | 67% | 79% |  |  |  |
| O=C(O)CNC(=O)C1=C(O)CCN(Cc2ccc(Oc3cccc(Cl)c3)nc2)C1=O [Ex. 1-284] | 107% | 103% | 40 nM |  |  |
| CC(C)(C)c1ccc(CN2CCC(O)=C(C(=O)NCC(=O)O)C2=O)cc1 [Ex. 1-55] | 75% | 79% |  |  |  |
| Cc1cccc(Oc2ccc(CN3CCC(O)=C(C(=O)NCC(=O)O)C3=O)cn2)c1 [Ex. 1-255] | 99% | 90% | 66 nM |  |  |
| CC1(C)CC(O)=C(C(=O)NCC(=O)O)C(=O)N1C[C@H]1C[C@@H]1c1ccccc1 [Ex. 1-229] | 74% | 60% |  |  |  |
| CC1(C)CC(O)=C(C(=O)NCC(=O)O)C(=O)N1C[C@H]1C[C@@H](c2ccccc2)C1 [Ex. 1-218] | 52% | 62% |  |  |  |
| O=C(O)CNC(=O)C1=C(O)C2(CCC2)CN(Cc2ccc(C(F)(F)F)cc2)C1=O [Ex. 1-83] | 54% | 73% |  |  |  |
| Cc1ccccc1-n1ncc(CN2CCC(O)=C(C(=O)NCC(=O)O)C2=O)c1C [Ex. 1-263] | 81% | 83% |  |  |  |
| O=C(O)CNC(=O)C1=C(O)CCN(Cc2ccc(C3CCCC3)cc2)C1=O [Ex. 3-1, N-{[1-(4-Cyclopentylbenzyl)-4-hydroxy-2-oxo-1,2,5,6-tetrahydropyridin-3-yl]carbonyl}glycine sodium salt] |  |  |  | 102% | 95% |
| Cc1cccc(Oc2ccc(CN3CCC(O)=C(C(=O)NCC(=O)O)C3=O)cc2)c1 [Ex. 1-257] | 95% | 89% | 75 nM |  |  |
| CC1CN(Cc2ccc(-c3ccc(C(F)(F)F)cc3)cc2)C(=O)C(C(=O)NCC(=O)O)=C1O (stereo not drawn) [Ex. 1-108] | 60% | 87% |  |  |  |
| Cc1cc(CN2C(=O)C(C(=O)NCC(=O)O)=C(O)CC2(C)C)cc(C)c1OC(F)F [Ex. 1-170] | 35% | 45% |  |  |  |
| COc1ccc(CN2C(=O)C(C(=O)NCC(=O)O)=C(O)CC2(C)C)cc1F [Ex. 1-194] | 54% | 57% |  |  |  |
| O=C(O)CNC(=O)C1=C(O)[C@@H]2CCCCC2N(Cc2ccc(-c3ccccc3)cc2)C1=O (stereo partly drawn) [Ex. 1-52] | 58% | 78% |  |  |  |
| O=C(O)CNC(=O)C1=C(O)CCN(Cc2c(F)cc(C(F)(F)F)cc2F)C1=O [Ex. 1-135] | 78% | 78% |  |  |  |
| O=C(O)CNC(=O)C1=C(O)C2(CCC2)CN(Cc2ccc(-c3ccccn3)cc2)C1=O [Ex. 1-102] | 67% | 83% |  |  |  |
| Cc1cc(CN2C(=O)C(C(=O)NCC(=O)O)=C(O)CC2(C)C)ccc1OC(CF)CF [Ex. 1-189] | 53% | 60% |  |  |  |

| SMILES | inhibition at 1 µM (human PHD2 [1]; [3]) | inhibition at 1 µM (human PHD2 [2]; [4]) | IC50 (human PHD2 [2]) | inhibition at 1 µM (human PHD2 [1]) | inhibition at 1 µM (human PHD2 [2]) |
| --- | --- | --- | --- | --- | --- |
| CC1CC(O)=C(C(=O)NCC(=O)O)C(=O)N1Cc1ccc(Cl)c(Cl)c1 (stereo not drawn) [Ex. 1-172] | 77% | 79% |  |  |  |
| O=C(O)CNC(=O)C1=C(O)CCN(Cc2ccc(Oc3cccc(F)c3)cc2)C1=O [Ex. 1-258] | 94% | 90% | 63 nM |  |  |
| CC1CC(O)=C(C(=O)NCC(=O)O)C(=O)N1Cc1ccc(Br)cc1 (stereo not drawn) [Ex. 1-148] | 78% | 82% |  |  |  |
| O=C(O)CNC(=O)C1=C(O)CCN(Cc2ccc(-c3ccc(F)cc3)c(F)c2)C1=O [Ex. 2-29] | 101% | 95% |  |  |  |
| CN(C)S(=O)(=O)c1ccc(-c2ccc(CN3CCC(O)=C(C(=O)NCC(=O)O)C3=O)cc2)cc1 [Ex. 2-15] | 97% | 90% |  |  |  |
| CCOc1ccc(CN2C(=O)C(C(=O)NCC(=O)O)=C(O)CC2(C)C)cc1 [Ex. 1-234] | 61% | 62% |  |  |  |
| O=C(O)CNC(=O)C1=C(O)CC2(CCC2)N(Cc2ccc(C3CC3)cc2)C1=O [Ex. 1-236] | 84% | 87% |  |  |  |
| O=C(O)CNC(=O)C1=C(O)CCN(Cc2ccc(C(F)(F)F)c(F)c2F)C1=O [Ex. 1-134] | 86% | 85% |  |  |  |
| O=C(O)CNC(=O)C1=C(O)CCN(Cc2ccc(OCC(F)(F)F)cc2)C1=O [Ex. 1-291] | 75% | 86% |  |  |  |
| O=C(O)CNC(=O)C1=C(O)C2(CC2)CN(Cc2ccc(C(F)(F)F)cc2)C1=O [Ex. 1-147] | 84% | 88% |  |  |  |
| O=C(O)CNC(=O)C1=C(O)C2(CCCCC2)CN(Cc2ccc(-c3ccccn3)cc2)C1=O [Ex. 1-101] | 60% | 86% |  |  |  |
| Cc1cc(CN2C(=O)C(C(=O)NCC(=O)O)=C(O)CC2(C)C)ccc1OCC1CC1 [Ex. 1-199] | 65% | 75% |  |  |  |
| CC1(C)CC(O)=C(C(=O)NCC(=O)O)C(=O)N1Cc1ccc(OC(F)F)cc1 [Ex. 1-161] | 62% | 62% |  |  |  |
| O=C(O)CNC(=O)C1=C(O)CC2(CCOCC2)N(CC2CCC(c3ccccc3)CC2)C1=O (stereo not drawn) [Ex. 1-99] | 71% | 92% |  |  |  |
| O=C(O)CNC(=O)C1=C(O)CCN(Cc2ccc(-c3ccc4ncccc4c3)cc2)C1=O [Ex. 2-27] | 100% | 96% |  |  |  |
| O=C(O)CNC(=O)C1=C(O)CC2(CC2)N(Cc2ccc(-c3ccccc3)cc2)C1=O [Ex. 1-223] | 90% | 96% |  |  |  |
| O=C(O)CNC(=O)C1=C(O)CC2(COC2)N(Cc2ccc(-c3ccc(C(F)(F)F)cc3)cc2)C1=O [Ex. 1-133] | 104% | 97% |  |  |  |
| O=C(O)CNC(=O)C1=C(O)CCN(Cc2ccc(-c3ccccc3)c(F)c2)C1=O [Ex. 1-125] | 98% | 97% |  |  |  |
| CC1(C)CC(O)=C(C(=O)NCC(=O)O)C(=O)N1CC1CCC(c2ccccc2)CC1 (stereo not drawn) [Ex. 1-115] | 49% | 83% |  |  |  |
| COc1cccc(-c2ccc(CN3CCC(O)=C(C(=O)NCC(=O)O)C3=O)cc2)c1 [Ex. 2-26] | 90% | 95% |  |  |  |
| Cc1nc(-c2ccccc2)oc1CN1C(=O)C(C(=O)NCC(=O)O)=C(O)CC1(C)C [Ex. 1-301] | 56% | 75% |  |  |  |
| O=C(O)CNC(=O)C1=C(O)CC(c2ccccc2)N(Cc2ccc(-c3ccccc3)cc2)C1=O (stereo not drawn) [Ex. 1-50] | 77% | 83% |  |  |  |
| O=C(O)CNC(=O)C1=C(O)C2(CCOCC2)CN(Cc2ccc(C(F)(F)F)cc2)C1=O [Ex. 1-64] | 80% | 81% |  |  |  |
| O=C(O)CNC(=O)C1=C(O)C2(CCCCC2)CN(Cc2ccc(-c3ccccc3)cc2)C1=O [Ex. 1-8] | 54% | 87% |  |  |  |
